The test system of one data set is LPS-induced TNFα. Nature of the data set: Inhibition of the formation of LPS-induced TNFα in RAW264.7 macrophages. The data set is classed as cell-based. An excerpt:
As for determination of inhibitory activity of Strepsesquitriol on the formation of lipopolysaccharide (LPS)-induced TNFα in RAW264.7 macrophages, please refer to the references (Fan, S. Y.; Zeng, H. W.; Pei, Y. H.; Li. L.; Ye, J.; Pan, Y. X.; Zhang, J. G.; Yuan, X.; Zhang, W. D. The anti-inflammatory activities of an extract and compounds isolated from Platycladus orientalis (Linnaeus) Franco in vitro and ex vivo J Ethnopharmacol 2012, 141, 647-652) ENREF 3.

In another data set the test system is RAW264.7 cells. Nature of the data set: Cytotoxic activity to RAW264.7 cells. The data set is classed as cell-based. The following applies: concentration 100 μM.

The structures appear in SMILES notation.

As for `Cc1ccc(S(=O)(=O)N[C@@H](Cc2ccccc2)C(=O)CCl)cc1` [TPCK, N-p-tosyl-1-phenylalanine chloromethyl ketone, reference compound], the “Inhibition rate (%)” value with LPS-induced TNFα (concentration 100 μM) is reported as 60.6%.

On to `C[C@H]1C[C@@H](O)[C@]23C[C@H](CC[C@]12O)C(C)(C)[C@]3(C)O` [Strepsesquitriol A, (1R,2R,4S,5S,8S,10S)-4,9,9,10-tetramethyl-2,5,10-trihydroxyltricyclo[6.2.1.0^1,5]undecane], for which, in the data set with RAW264.7 cells, the cytotoxic activity result was “no cytotoxic activity”. In the data set on LPS-induced TNFα (Mus musculus, concentration 3.6 μM, read-out: Inhibition rate (%)), the inhibition at 3.6 µM came out at 3.4 ± 2.8%. Moreover, the inhibition at 11 µM in the data set on LPS-induced TNFα (Mus musculus, concentration 11.0 μM, read-out: Inhibition rate (%)) came to 8 ± 1.6%. In addition, the inhibition at 33 µM with LPS-induced TNFα (Mus musculus, concentration 33.0 μM, read-out: Inhibition rate (%)) was determined as 30.6 ± 1.4%. Moreover, in the data set with LPS-induced TNFα (Mus musculus, concentration 100 μM, read-out: Inhibition rate (%)), the inhibition at 100 µM was 35.4%.

What is called inhibition is the drop in the measured response relative to a control, in per cent.
